{"source": "patent US20050119288A1", "about": "“Dosing schedule for a novel anticancer agent” (Pfizer Inc, priority 2003, published 2005)", "key": {"[1]": {"assay": "Body weight and tolerability, SK-OV-3 study", "format": "in vivo, mice", "conditions": "PO", "description": "SK-OV-3 cells obtained from ATCC (Rockville, Md.) were grown in McCoy's medium containing 10% fetal bovine serum and pen/strep. Exponentially growing cells were harvested and inoculated SC (5 million cells/animal) into female athymic mice. The tumor measurements and body weight changes were obtained on days 1, 3, 6, 10, 13 and 18. Tumor volume was calculated by the following formula: Tumor volume (mm^3)═(W×W)/2×L (L=length & W=width). Blood samples (˜50 μl) were isolated at 0.5, 1, 2, 4 and 8 hrs after dosing on day 18 for PK-analysis. Tumors were isolated at 0.5 hr post-dosing on day 18 for PD-analysis by ELISA. The p-erbB2 reduction, tumor volume and body weight changes in control and test compound treated animals are shown below in Table 2."}, "[2]": {"biological_target": "erbB2 receptor autophosphorylation (Homo sapiens, UniProt P04626)", "sequence (P04626 23-1255)": "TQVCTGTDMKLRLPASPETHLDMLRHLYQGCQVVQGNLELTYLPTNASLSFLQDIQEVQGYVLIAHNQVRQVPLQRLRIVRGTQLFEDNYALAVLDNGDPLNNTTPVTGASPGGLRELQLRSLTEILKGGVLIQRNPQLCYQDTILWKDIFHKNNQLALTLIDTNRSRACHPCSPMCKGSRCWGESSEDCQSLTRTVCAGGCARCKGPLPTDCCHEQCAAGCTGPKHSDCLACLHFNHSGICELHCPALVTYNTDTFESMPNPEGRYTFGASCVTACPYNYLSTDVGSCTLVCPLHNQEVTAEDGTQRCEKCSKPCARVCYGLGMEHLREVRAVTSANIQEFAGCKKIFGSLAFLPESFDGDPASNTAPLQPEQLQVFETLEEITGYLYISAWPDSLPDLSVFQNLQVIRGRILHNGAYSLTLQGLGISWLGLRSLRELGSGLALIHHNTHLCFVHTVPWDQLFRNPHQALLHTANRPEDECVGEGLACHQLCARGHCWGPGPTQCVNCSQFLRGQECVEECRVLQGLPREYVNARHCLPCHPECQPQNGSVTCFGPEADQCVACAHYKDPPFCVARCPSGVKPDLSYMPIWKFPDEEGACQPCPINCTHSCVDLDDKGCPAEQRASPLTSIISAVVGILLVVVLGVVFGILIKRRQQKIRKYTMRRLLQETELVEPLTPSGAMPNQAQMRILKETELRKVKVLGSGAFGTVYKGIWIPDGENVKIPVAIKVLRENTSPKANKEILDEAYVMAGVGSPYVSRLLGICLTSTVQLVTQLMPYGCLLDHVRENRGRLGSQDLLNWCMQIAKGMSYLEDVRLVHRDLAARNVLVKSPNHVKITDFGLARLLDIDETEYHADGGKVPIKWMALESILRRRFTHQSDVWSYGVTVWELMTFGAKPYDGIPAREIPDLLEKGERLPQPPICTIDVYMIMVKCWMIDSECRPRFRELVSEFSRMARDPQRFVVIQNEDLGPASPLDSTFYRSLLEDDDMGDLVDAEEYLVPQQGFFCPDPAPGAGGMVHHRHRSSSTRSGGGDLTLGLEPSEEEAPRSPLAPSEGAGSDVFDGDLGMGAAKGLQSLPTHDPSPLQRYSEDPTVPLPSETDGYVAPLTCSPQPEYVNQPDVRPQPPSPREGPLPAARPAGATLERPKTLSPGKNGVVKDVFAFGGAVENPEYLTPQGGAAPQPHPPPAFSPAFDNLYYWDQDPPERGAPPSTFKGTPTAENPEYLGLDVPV", "assay": "p-erbB2 reduction in BT-474 tumors by ELISA", "format": "in vivo", "conditions": "0.5 hr post-dosing on day 22; for inhibition in vivo at 30 mg/kg / inhibition in vivo at 50 mg/kg: BT-474, po, 0.5 h; for % p-erbB2 reduction: PO", "description": "(§1) Exponentially growing BT-474 cells (RPMI 1640 with 10 mM HEPES, 10% FBS, and pen/strep [Gibco]) were harvested and inoculated SC (5 million cells/animal) into female athymic mice. Trochar pieces of BT-474 tumors were then implanted into the right flank of animals. BT-474 tumor bearing mice (50-320 mm^3 in size, N=40) were randomized in 7 groups consisting 5-6 animals each. Animals were treated with vehicle (PO, BID) or the test compound (PO, QD or BID) as described in Table 4. The tumor measurements and body weight changes were obtained on days 1, 6, 11, 15 and 22. Tumor volume was calculated by the following formula: Tumor volume (mm^3)═(W×W)/2×L (L=length & W=width). Blood samples (˜50 μl) were isolated at 0.5, 1, 2, 4 and 8 hrs after dosing on day 22 for PK-analysis. Tumors were isolated at 0.5 hr post-dosing on day 22 for PD-analysis by ELISA."}, "BT-474 tumors": {"tested_on": "BT-474 tumors", "assay": "BT-474 xenograft tumor growth in athymic mice", "format": "in vivo, human", "conditions": "PO; for % Growth inhibition: 22 days", "text": "The in vivo anti-tumor activity of the compounds for use in the methods of the present invention can be determined by the amount of inhibition of tumor growth by a test compound relative to a control. The tumor growth inhibitory effects of various compounds can be measured according to the method of Corbett T. H., et al., “Tumor Induction Relationships in Development of Transplantable Cancers of the Colon in Mice for Chemotherapy Assays, with a Note on Carcinogen Structure”, Cancer Res., 35, 2434-2439 (1975) and Corbett T. H., et al., “A Mouse Colon-tumor Model for Experimental Therapy”, Cancer Chemother. Rep. (Part 2)”, 5, 169-186 (1975), with slight modifications. Tumors can be induced in the left flank of mice by subcutaneous (sc) injection of 1-5 million log phase cultured tumor cells suspended in 0.1 ml RPMI 1640 medium. After sufficient time has elapsed for the tumors to become palpable (˜100-150 mm^3 in size/5-6 mm in diameter) the test animals (athymic female mice) are treated with test compound (formulated at a concentration of 10 to 15 mg/ml in 5 Gelucire or 0.5% methyl cellulose) by the intravenous (iv) or oral (po) route of administration once or twice daily for 7 to 29 consecutive days. In order to determine an anti-tumor effect, the tumor is measured in millimeters with a Vernier caliper across two diameters and the tumor size (mm^3) is calculated using the formula: Tumor size (mm^3)=(W×W)/2×L (L=length and W=width), according to the methods of Geran, R. I., et al. “Protocols for Screening Chemical Agents and Natural Products Against Animal Tumors and Other Biological Systems”, Third Edition, Cancer Chemother. Rep., 3, 1-104 (1972). Results are expressed as percent inhibition, according to the formula: Inhibition Growth (%)=[100-{(% Growth of Treated/% Growth of Control)×100}]. The flank site of tumor implantation provides reproducible dose/response effects for a variety of chemotherapeutic agents, and the method of measurement (tumor diameter) is a reliable method for assessing tumor growth rates.\nas §1\nStatistical Analysis: ANOVA was conducted on the percentage growth data and planned comparisons were conducted between like-doses. The data were log transformed for the analysis due to the distribution of the values. The Dunnett-Tamahane procedure was used for the multiple comparison analysis.\nThus, oral anti-tumor efficacy of the test compound (QD and BID) was determined against human breast adenocarcinoma model BT-474 which overexpresses erbB2. The test compound administration (QD or BID) was efficacious and caused growth inhibition of BT-474 xenografts (FIGS. 5a and 5b). […] Due to a wide variation in the initial tumor volume, % growth of individual tumor was calculated and an average of each group was used to determine relative anti-tumor efficacy."}, "[3]": {"tested_on": "p-erbB2 (the phosphorylated form of erbB2 receptor)", "assay": "p-erbB2 reduction in FRE/erbB2 tumors", "format": "in vivo, human", "text": "An objective of the pre-clinical investigations was to determine whether the Cmax or area under the curve (AUC) of the test compound is critical for the anti-tumor efficacy. An additional goal was to establish a pharmacokinetics/pharmacodynamics (PK/PD) relationship in the FRE/erbB2 tumor model. The FRE/erbB2 is an engineered murine tumor model, which over-expresses human erbB2 with a trans-membrane mutation."}, "in vivo": {"assay": "in vivo", "conditions": "athymic, mouse, plasma", "procedure": "The test compound was either administered using tail vein infusion or orally.\nA 1.15 mg/ml solution of the test compound was infused IV at 550 μl/hr for 2 minute ramped infusions followed by 50 μl/hr for 15 min or 4 hour daily infusions. (Projection was based on Cl of the test compound). Athymic female mice bearing FRE/erbB2 tumors (˜100 mm^3 in size) were treated with vehicle, the test compound orally or the test compound intravenously. […] The study was carried out for 7 days. Plasma and tumor samples were isolated for PK and PD analysis at the termination of study."}, "[4]": {"conditions": "BID, 30 mg/kg (Total Daily Dose = 60 mg/kg)"}, "[5]": {"conditions": "BID, 50 mg/kg (Total Daily Dose = 100 mg/kg)"}, "[6]": {"conditions": "BID, 15 mg/kg (Total Daily Dose = 30 mg/kg)"}}}
{"smiles": "COCC(=O)NC/C=C/c1ccc2ncnc(Nc3ccc(Oc4ccc(C)nc4)c(C)c3)c2c1", "note": "[Test Compound, E-2-Methoxy-N-(3-{4-(3-methyl-4-(6-methyl-pyridin-3-yloxy)-phenylamino)-quinazolin-6-yl}-allyl)-acetamide]", "values": [{"measurement": "average body weight Day 1", "setting": "[1]; BID 25 mg/kg", "result": 24, "unit": "g"}, {"measurement": "average body weight Day 18", "setting": "[1]; BID 25 mg/kg", "result": 26, "unit": "g"}, {"measurement": "average body weight Day 1", "setting": "[1]; BID 50 mg/kg", "result": 24, "unit": "g"}, {"measurement": "average body weight Day 18", "setting": "[1]; BID 50 mg/kg", "result": 25, "unit": "g"}, {"measurement": "average body weight Day 1", "setting": "[1]; BID 100 mg/kg", "result": 23, "unit": "g"}, {"measurement": "average body weight Day 18", "setting": "[1]; BID 100 mg/kg", "result": 23, "unit": "g"}, {"measurement": "average body weight Day 1", "setting": "[1]; QD 50 mg/kg", "result": 23, "unit": "g"}, {"measurement": "average body weight Day 18", "setting": "[1]; QD 50 mg/kg", "result": 24, "unit": "g"}, {"measurement": "average body weight Day 1", "setting": "[1]; QD 100 mg/kg", "result": 23, "unit": "g"}, {"measurement": "average body weight Day 18", "setting": "[1]; QD 100 mg/kg", "result": 25, "unit": "g"}, {"measurement": "average body weight Day 1", "setting": "[1]; QD 200 mg/kg", "result": 23, "unit": "g"}, {"measurement": "average body weight Day 18", "setting": "[1]; QD 200 mg/kg", "result": 24, "unit": "g"}, {"measurement": "tolerability, body weight loss or animal mortality", "setting": "[1]; QD or BID, 18 days", "result": "well tolerated and there was no body weight loss or animal mortality"}, {"measurement": "inhibition in vivo at 30 mg/kg", "setting": "[2]; [4]", "result": 26, "unit": "%"}, {"measurement": "inhibition in vivo at 50 mg/kg", "setting": "[2]; [5]", "result": "~75", "unit": "%"}, {"measurement": "inhibition in vivo at 30 mg/kg", "setting": "[2]; QD, 30 mg/kg", "result": 57, "unit": "%"}, {"measurement": "inhibition in vivo at 50 mg/kg", "setting": "[2]; QD, 50 mg/kg", "result": "~75", "unit": "%"}, {"measurement": "% p-erbB2 reduction", "setting": "[2]; [6]", "result": "below the limit of detection"}, {"measurement": "% p-erbB2 reduction", "setting": "[2]; [4]", "result": 26, "unit": "%"}, {"measurement": "% p-erbB2 reduction", "setting": "[2]; QD, 15 mg/kg, 15 mg/kg", "result": "below the limit of detection"}, {"measurement": "Tumor volume Day 1 (Mean ± SE)", "setting": "BT-474 tumors; BID 50 mg/kg", "result": "155 ± 42", "unit": "mm^3"}, {"measurement": "% Growth inhibition", "setting": "BT-474 tumors; [6]", "result": 54, "unit": "%"}, {"measurement": "Tumor volume Day 1 (Mean ± SE)", "setting": "BT-474 tumors; BID, 15 mg/kg", "result": "114 ± 47", "unit": "mm^3"}, {"measurement": "Tumor volume Day 22 (Mean ± SE)", "setting": "BT-474 tumors; BID, 15 mg/kg", "result": "520 ± 254", "unit": "mm^3"}, {"measurement": "% Growth inhibition", "setting": "BT-474 tumors; [4]", "result": 68, "unit": "%"}, {"measurement": "Tumor volume Day 1 (Mean ± SE)", "setting": "BT-474 tumors; BID, 30 mg/kg", "result": "161 ± 44", "unit": "mm^3"}, {"measurement": "Tumor volume Day 22 (Mean ± SE)", "setting": "BT-474 tumors; BID, 30 mg/kg", "result": "530 ± 240", "unit": "mm^3"}, {"measurement": "% Growth inhibition", "setting": "BT-474 tumors; [5]", "result": 68, "unit": "%"}, {"measurement": "Tumor volume Day 22 (Mean ± SE)", "setting": "BT-474 tumors; BID, 50 mg/kg", "result": "413 ± 98", "unit": "mm^3"}, {"measurement": "Tumor volume Day 1 (Mean ± SE)", "setting": "BT-474 tumors; QD 50 mg/kg", "result": "153 ± 40", "unit": "mm^3"}, {"measurement": "% Growth inhibition", "setting": "BT-474 tumors; QD, 15 mg/kg", "result": 22, "unit": "%"}, {"measurement": "Tumor volume Day 1 (Mean ± SE)", "setting": "BT-474 tumors; QD, 15 mg/kg", "result": "78 ± 18", "unit": "mm^3"}, {"measurement": "Tumor volume Day 22 (Mean ± SE)", "setting": "BT-474 tumors; QD, 15 mg/kg", "result": "376 ± 79", "unit": "mm^3"}, {"measurement": "% Growth inhibition", "setting": "BT-474 tumors; QD, 30 mg/kg", "result": 33, "unit": "%"}, {"measurement": "Tumor volume Day 1 (Mean ± SE)", "setting": "BT-474 tumors; QD, 30 mg/kg", "result": "139 ± 31", "unit": "mm^3"}, {"measurement": "Tumor volume Day 22 (Mean ± SE)", "setting": "BT-474 tumors; QD, 30 mg/kg", "result": "635 ± 189", "unit": "mm^3"}, {"measurement": "% Growth inhibition", "setting": "BT-474 tumors; QD, 50 mg/kg", "result": 35, "unit": "%"}, {"measurement": "Tumor volume Day 22 (Mean ± SE)", "setting": "BT-474 tumors; QD, 50 mg/kg", "result": "608 ± 136", "unit": "mm^3"}, {"measurement": "% p-erbB2 reduction", "setting": "[3]; 1.4 mg/kg IV, QD, 15 min/day", "result": 48, "unit": "%"}, {"measurement": "% p-erbB2 reduction", "setting": "[3]; 10.7 mg/kg IV, 4 hr/day", "result": 53, "unit": "%"}, {"measurement": "% p-erbB2 reduction", "setting": "[3]; 25 mg/kg PO, QD, termination of 7 day study", "result": 34, "unit": "%"}, {"measurement": "p-erbB2 reduction", "setting": "[3]; span over the IV groups 15 min/day and 4 hr/day", "result": "48-53%"}, {"measurement": "AUC(0-t)", "setting": "in vivo", "result": "~985", "unit": "ng·h/mL"}, {"measurement": "Cmax", "setting": "in vivo", "result": "~1200", "unit": "ng/mL"}, {"measurement": "concentration at 7 days", "setting": "in vivo; female, intravenous, 1.4 mg/kg", "result": "448 ± 141", "unit": "ng/mL"}, {"measurement": "concentration at 0.5 h", "setting": "in vivo; female, oral, 25 mg/kg", "result": 1460, "unit": "ng/mL"}]}
